Experiment in all cases: NCI tumour cell line growth inhibition, 48 h
Assay [1] relates to HT-29.
The subject of assay [2] is NCI-H23.
For assay [3], the system named is Malme-3M.
The subject of assay [4] is SK-MEL-2.
Assay [5] concerns SW-620.
In assay [6] the test system is NCI-H460.
In assay [7] the test system is SK-MEL-28.
For assay [8], the system named is PC-3.
The test system of assay [9] is HCC 2998.
Assay [10] has as its system HL-60.
In assay [11] the test system is ACHN.
Assay [12] concerns MCF7.
Assay [13] deals with SF-295.
Assay [14] relates to LOX IMVI.
The test system of assay [15] is SNB-75.
Assay [16] relates to HOP-62.
In assay [17] the test system is SF-539.
In assay [18] the test system is Hs-578T.
Assay [19] relates to OVCAR-3.
The test system of assay [20] is UO-31.

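Results reflect a 48-hour exposure of cells in 96-well plates to compound at five concentrations. The concentration for 50% growth inhibition is given as GI50.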 Activity calls are given as the source filed them. Cut-off read from the data, not from the text of the source: active = GI50 up to about 1.1 µM and inactive = higher.

For the compound `Cc1c2c(c(C)c3c[n+](C)ccc13)Oc1ccccc1O2`, the GI50 was 20 µM (inactive) in [1]; 6.9 µM (inactive) in [2]; 2.56 µM (inactive) in assay [3]; 12.2 µM (inactive) in assay [4]; 16.9 µM (inactive) in [5]; 3.4 µM (inactive) in assay [6]. For the same compound, the GI50 in assay [7] is 13.7 µM (inactive); in assay [8] it was 16.3 µM (inactive); in [9], 6.56 µM (inactive); in assay [10], 13.3 µM (inactive); in [11], 34.9 µM (inactive); in assay [12] it was 9.12 µM (inactive). The GI50 in assay [13] was 5.69 µM (inactive); in assay [14], 22.3 µM (inactive); in assay [15], 5.28 µM (inactive); in [16], 8.89 µM (inactive); in assay [17], 3.78 µM (inactive); in assay [18] it was 3.13 µM (inactive). Further, the GI50 in [19] is 3.17 µM (inactive); in assay [20] it was 94.4 µM (inactive).
For the compound `[N-]=[N+]=NC1C(O)C(CO)OC1n1ccc(N)nc1=O` (stereo not given), the GI50 in assay [1] is 204 µM (inactive); in [2] it was 29.9 µM (inactive); in [3], 93.8 µM (inactive); in [4], 76.7 µM (inactive); in assay [5], 159 µM (inactive); in assay [6], 235 µM (inactive). The GI50 was 416 µM (inactive) in assay [7]; 182 µM (inactive) in assay [8]; 46.7 µM (inactive) in [9]; 3.83 µM (inactive) in assay [10]; 33.9 µM (inactive) in assay [11]; 24 µM (inactive) in assay [12]. In addition, the GI50 was 530 µM (inactive) in [13]; 232 µM (inactive) in assay [14]; 430 µM (inactive) in assay [15]; 104 µM (inactive) in assay [16]; 165 µM (inactive) in assay [17]; 532 µM (inactive) in assay [18]. Also, the figures for the GI50 in [19] and in assay [20] were 68.2 µM (inactive) and 228 µM (inactive), respectively.
For the compound `COC(=O)C1(Cc2ccccc2C)Cc2ccc(C)cc2C1=O` (stereo not given), the GI50 in [1] is 16.7 µM (inactive); in assay [2], 26.4 µM (inactive); in [3], 23.2 µM (inactive); in [4], 21.2 µM (inactive); in assay [5], 45 µM (inactive); in assay [6], 30.8 µM (inactive). The GI50 in assay [7] was 79.8 µM (inactive); in [8], 25.7 µM (inactive); in [9], 48 µM (inactive); in assay [10], 15.6 µM (inactive); in [11] it was 34.9 µM (inactive); in assay [12], 20 µM (inactive). For the same compound, the GI50 in assay [13] is 34.4 µM (inactive); in [14], 19.7 µM (inactive); in [15], 58.3 µM (inactive); in [16], 56.4 µM (inactive); in assay [17] it was 37.5 µM (inactive); in [18], 33.2 µM (inactive). The figures for the GI50 in [19] and in assay [20] were 27.7 µM (inactive) and 36.6 µM (inactive), respectively.
In the case of `O=C(NC12CC3CC(CC(C3)C1)C2)n1cnc2c(Cl)ncnc21`, the GI50 is 27 µM (inactive) in assay [1]; 22.7 µM (inactive) in [2]; > 100 µM (inactive) in assay [3]; 28.3 µM (inactive) in assay [4]; 37 µM (inactive) in assay [5]; 28 µM (inactive) in assay [6]. For the same compound, the GI50 in [7] is 42.9 µM (inactive); in [8], 26.4 µM (inactive); in assay [9], 19.1 µM (inactive); in assay [10], 3.28 µM (inactive); in assay [11], 21.2 µM (inactive); in assay [12] it was > 100 µM (inactive). The GI50 is 59.8 µM (inactive) in assay [13]; 18.7 µM (inactive) in assay [14]; 27.4 µM (inactive) in assay [15]; 37.5 µM (inactive) in assay [16]; 42.6 µM (inactive) in assay [17]; 32.3 µM (inactive) in assay [18]. Besides, the GI50 in [19] was 22.7 µM (inactive); in assay [20], > 100 µM (inactive).
As for `C=CCN1C(=O)/C(=C/c2cccs2)N=C1SC/C=C/C`, the GI50 in assay [1] was 34.6 µM (inactive); in [2] it was 44.7 µM (inactive); in [3], 34 µM (inactive); in assay [4], 27.2 µM (inactive); in [5], 35.6 µM (inactive); in assay [6], 38.3 µM (inactive). The GI50 in [7] was 54.1 µM (inactive); in assay [8], 35.6 µM (inactive); in assay [9], 48.3 µM (inactive); in [10], 21.3 µM (inactive); in assay [11], 35.5 µM (inactive); in assay [12], 26.4 µM (inactive). For the same compound, the GI50 in assay [13] is 40.4 µM (inactive); in assay [14], 36.1 µM (inactive); in assay [15], 17.3 µM (inactive); in assay [16] it was > 100 µM (inactive); in assay [17], 58.3 µM (inactive); in [18], 32.7 µM (inactive). For the same compound, the values for the GI50 in assay [19] and in [20] were 44.8 µM (inactive) and 44.2 µM (inactive), respectively.
Consider `CC1(C)CC(=O)c2c(nc3c4c([nH]c(-c5ccc(Br)cc5)c24)CC(C)(C)C3)C1`, for which the GI50 in assay [1] is 4.79 µM (inactive); in assay [2], 52.1 µM (inactive); in assay [3] it was 49.1 µM (inactive); in [4], 36.6 µM (inactive); in assay [5], 49.3 µM (inactive); in assay [6] it was 37.8 µM (inactive). Also, the GI50 in assay [7] was 98.9 µM (inactive); in assay [8], 22.4 µM (inactive); in assay [9] it was 19.2 µM (inactive); in assay [10] it was 43.3 µM (inactive); in [11], 42.7 µM (inactive); in assay [12], 33 µM (inactive). Further, the GI50 in assay [13] was 21.3 µM (inactive); in assay [14], 30.2 µM (inactive); in assay [15] it was 27.9 µM (inactive); in assay [16], > 100 µM (inactive); in assay [17] it was 76.6 µM (inactive); in assay [18] it was 33 µM (inactive). The GI50 in assay [19] is 27.1 µM (inactive); in [20], 45.1 µM (inactive).
For `CC1CNC(c2ccc(CN3CCC(CCCC4CCN(Cc5ccc(C6=NC(C)CN6)cc5)CC4)CC3)cc2)=N1` (stereo not given), the GI50 in assay [1] was 30.9 µM (inactive); in assay [2], > 100 µM (inactive); in [3], > 100 µM (inactive); in assay [4], 21.7 µM (inactive); in assay [5], 30.5 µM (inactive); in assay [6] it was 18.5 µM (inactive). For the same compound, the GI50 was > 100 µM (inactive) in [7]; 36.8 µM (inactive) in assay [8]; 14.8 µM (inactive) in assay [9]; > 100 µM (inactive) in assay [10]; > 100 µM (inactive) in assay [11]; 19.8 µM (inactive) in assay [12]. The GI50 in assay [13] was > 100 µM (inactive); in [14], 82.4 µM (inactive); in [15], 23.4 µM (inactive); in assay [16] it was 32.2 µM (inactive); in [17] it was 29.6 µM (inactive); in assay [18], > 100 µM (inactive). The GI50 in assay [19] and in assay [20] was > 100 µM (inactive) in each case.
Turning to `C=C1C(=O)O[C@@H]2C[C@@H](C)[C@@H]3[C@@H](OC4OC(COC(C)=O)C(O)C(O)C4O)CC(=O)[C@@]3(C)C[C@H]12` (stereo not given in full), the GI50 in assay [1] is 1.22 µM (inactive); in assay [2], 12.5 µM (inactive); in [3], 0.283 µM (active); in assay [4], 7.5 µM (inactive); in [5], 0.574 µM (active); in [6], 14.3 µM (inactive). The GI50 was 2.15 µM (inactive) in [7]; 10.3 µM (inactive) in assay [8]; 1.75 µM (inactive) in assay [9]; 0.211 µM (active) in [10]; 0.508 µM (active) in assay [11]; 0.728 µM (active) in assay [12]. The GI50 in [13] was 17.3 µM (inactive); in assay [14], 0.63 µM (active); in assay [15], 7.31 µM (inactive); in assay [16], 17.3 µM (inactive); in assay [17] it was 2.42 µM (inactive); in [18] it was 25.2 µM (inactive). Moreover, the GI50 in [19] was 1.1 µM (active); in assay [20], 1.83 µM (inactive).
As for `C=C1CC(COc2ccc3c(C)cc(=O)oc3c2)(c2ccccc2)OC1=O` (stereo not given), the GI50 in assay [1] is 1.29 µM (inactive); in assay [2], 2.34 µM (inactive); in [3], 1.3 µM (inactive); in [4], 1.4 µM (inactive); in assay [5], 0.646 µM (active); in assay [6], 7.43 µM (inactive). Besides, the GI50 in assay [7] is 2.41 µM (inactive); in [8] it was 2.2 µM (inactive); in assay [9], 5.18 µM (inactive); in [10] it was 0.263 µM (active); in assay [11], 3.37 µM (inactive); in [12], 1.13 µM (inactive). Also, the GI50 in assay [13] was 6.85 µM (inactive); in assay [14] it was 1.26 µM (inactive); in assay [15], 6.95 µM (inactive); in assay [16], 13.1 µM (inactive); in assay [17], 2.45 µM (inactive); in assay [18] it was 6.82 µM (inactive). Also, the GI50 in [19] is 2.69 µM (inactive); in assay [20], 4.88 µM (inactive).
On to `Oc1cc(-c2cccc(OCc3ccccc3)c2)nc2cc3c(cc12)OCO3`, for which the GI50 in assay [1] is 2.01 µM (inactive); in [2] it was 0.75 µM (active); in [3], 0.621 µM (active); in assay [4], 0.301 µM (active); in assay [5] it was 0.303 µM (active); in [6], 0.292 µM (active). The GI50 is 0.632 µM (active) in assay [7]; 0.327 µM (active) in assay [8]; 0.298 µM (active) in [9]; 0.0935 µM (active) in assay [10]; 3.71 µM (inactive) in [11]; 1.91 µM (inactive) in assay [12]. For the same compound, the GI50 was 0.63 µM (active) in assay [13]; 0.269 µM (active) in assay [14]; 1.05 µM (active) in assay [15]; 0.44 µM (active) in [16]; 0.252 µM (active) in assay [17]; 0.303 µM (active) in [18]. The GI50 is 0.304 µM (active) in assay [19] and 0.502 µM (active) in assay [20].

The record behind these values is ChEMBL document CHEMBL1201862, “PubChem BioAssay data set” (2004).
